Experimental data reported in US20040019193A1, “Mob-5/hmob-5 as a cancer diagnostic marker” (priority 2002, published 2004).

Test system: mob-5
Experiment: Differential display of Rat-1(ras) cells with or without PD98059
Assay type: cell-based
Conditions: 10 μM for 24 hours
Procedure: (B) Identification of mob-5 as a gene activated by oncogenic h-ras but inactivated by MAP kinase inhibitor, PD98059. Total cellular RNA from the normal Rat-1 cells and their oncogenic h-ras transformed derivatives Rat-1(ras) treated with or without 10 μM of PD98059 for 24 hours were compared by differential display. The same primer combination as used in (A) identified the mob-5 (arrow) again as a candidate gene activated by ras but inhibited by ras downstream MAP kinase inhibitor.
RNA purification, automated differential display screening and Northern blot analysis Total RNA from cells were purified using the RNApure reagent following the manufacture instruction (GenHunter Corp., Nashville, Tenn.). DNase I treatment of RNA prior to differential display was carried out using the MessageClean kit (GenHunter Corp., Nashville, Tenn.). Differential display PCR reactions were setup in 96-well PCR plates (Perkin-Elmer) by the Beckman Biomek 2000 automated liquid dispensing workstation using one-base anchored oligo-dT primers and rationally designed arbitrary 13mers (Liang et al., 1994b) from the RNAimage kits (GenHunter Corp., Nashville, Tenn.). The cDNAs were amplified in the presence of ^33P [(α-dATP] (New England Nuclear, Boston, Mass.) using Taq DNA polymerase (Qiagene) and separated on 6 % denaturing polyacrylamide gels (National Diagnostic, Atlanta, Ga.). […]

`COc1cccc(-c2cc(=O)c3ccccc3o2)c1N` [PD98059] was tested, and the “mob-5 expression (differential display)” value was “inactivated”.
